In patent US11795460B2, “Compositions and methods for TTR gene editing and treating ATTR amyloidosis” (Intellia Therapeutics, Inc., priority 2017, dated 2023):

Assays:
[1] = test system: TTR; assay: TTR editing in primary cyno hepatocytes electroporated with Spy Cas9 protein and dgRNAs (Tables 10, 11); format: cell-based, cynomolgus monkey; conditions: primary cyno hepatocytes electroporated with Spy Cas9 protein (RNP) and cyno specific dgRNAs
Method: (§1) Primary liver hepatocytes. Primary human liver hepatocytes (PHH) and primary cynomolgus liver hepatocytes (PCH) (Gibco) were cultured per the manufacturer's protocol (Invitrogen, protocol 11.28.2012). In brief, the cells were thawed and resuspended in hepatocyte thawing medium with supplements (Gibco, Cat. CM7000) followed by centrifugation at 100 g for 10 minutes for human and 80 g for 4 minutes for cyno. The supernatant was discarded and the pelleted cells resuspended in hepatocyte plating medium plus supplement pack (Invitrogen, Cat. A1217601 and CM3000). Cells were counted and plated on Bio-coat collagen I coated 96-well plates (ThermoFisher, Cat. 877272) at a density of 33,000 cells/well for human or 60,000 cells/well for cyno (or 65,000 cells/well when assaying effects on TTR protein, described further below). Plated cells were allowed to settle and adhere for 6 or 24 hours in a tissue culture incubator at 37° C. and 5% CO2 atmosphere. After incubation cells were checked for monolayer formation and media was replaced with hepatocyte culture medium with serum-free supplement pack (Invitrogen, Cat. A1217601 and CM4000).
(§2) […] formation was performed prior to electroporation or transfection of Spy Cas9 protein loaded with guide RNAs (RNPs) onto cells. For dual guide (dgRNAs), individual crRNA and trRNA was pre-annealed by mixing equivalent amounts of reagent and incubating at 95° C. for 2 min and cooling to room temperature. Single guide (sgRNAs) were boiled at 95° C. for 2 min and cooling to room temperature. The boiled dgRNA or sgRNA was incubated with Spy Cas9 protein in Optimem for 10 minutes at room temperature to form a ribonucleoprotein (RNP) complex.
(§3) For RNP electroporation into primary human and cyno hepatocytes, the cells are thawed and resuspended in Lonza electroporation Primary Cell P3 buffer at a concentration of 2500 cells per μL for human hepatocytes and 3500 cells per μL for cyno hepatocytes. A volume of 20 μL of resuspended cells and 5 μL of RNP are mixed together per guide. 20 μL of the mixture is placed into a Lonza electroporation plate. The cells were electroporated using the Lonza nucleofector with the preset protocol EX-147. Post electroporation, the cells are transferred into a Biocoat plate containing pre-warmed maintenance media and placed in a tissue culture incubator at 37° C. and 5% CO2.
(§4) Transfected cells were harvested post-transfection at 24, 48, or 72 hours. The genomic DNA was extracted from each well of a 96-well plate using 50 μL/well BuccalAmp DNA Extraction solution (Epicentre, Cat. QE09050) per manufacturer's protocol. All DNA samples were subjected to PCR and subsequent NGS analyses, as described herein.
(§5) To quantitatively determine the efficiency of editing at the target location in the genome, sequencing was utilized to identify the presence of insertions and deletions introduced by gene editing.
(§6) Primers were designed around the target site within the gene of interest (e.g. TTR), and the genomic area of interest was amplified.
(§7) Additional PCR was performed per the manufacturer's protocols (Illumina) to add chemistry for sequencing. The amplicons were sequenced on an Illumina MiSeq instrument. The reads were aligned to a reference genome (e.g., the human reference genome (hg38), the cynomologus reference genome (mf5), the rat reference genome (rn6), or the mouse reference genome (mm10)) after eliminating those having low quality scores. The resulting files containing the reads were mapped to the reference genome (BAM files), where reads that overlapped the target region of interest were selected and the number of wild type reads versus the number of reads which contain an insertion, substitution, or deletion was calculated.
(§8) The editing percentage (e.g., the “editing efficiency” or “percent editing” or “indel frequency”) is defined as the total number of sequence reads with insertions/deletions (“indels”) or substitutions over the total number of sequence reads, including wild type. […]

[2] = test system: TTR; assay: TTR editing in HEK293_Cas9 cells transfected with dgRNAs (Table 4); format: cell-based, human; conditions: HEK293_Cas9 cells (constitutively express Spy Cas9) transfected with dgRNAs
Method: HEK293 Cas9 cell line. The human embryonic kidney adenocarcinoma cell line HEK293 constitutively expressing Spy Cas9 (“HEK293_Cas9”) was cultured in DMEM media supplemented with 10% fetal bovine serum and 500 μg/ml G418. Cells were plated at a density of 10,000 cells/well in a 96-well plate 24 hours prior to transfection. Cells were transfected with Lipofectamine RNAiMAX (ThermoFisher, Cat. 13778150) per the manufacturer's protocol. Cells were transfected with a lipoplex containing individual crRNA (25 nM), trRNA (25 nM), Lipofectamine RNAiMAX (0.3 μL/well) and OptiMem.
as §4, §5, §6, §7
(§9) The editing percentage (e.g., the “editing efficiency” or “percent editing” or “indel frequency”) is defined as the total number of sequence reads with insertions/deletions (“indels”) or substitutions over the total number of sequence reads, including wild type.
(§10) Guides in dgRNA format targeting human TTR and the cynomologus matched sequences were delivered to HEK293 Cas9, HUH7 and HepG2 cell lines, as well as primary human hepatocytes and primary cynomolgus monkey hepatocytes as described in Example 1. Percent editing was determined for crRNAs comprising each guide sequence across each cell type and the guide sequences were then rank ordered based on highest % edit. The screening data for the guide sequences in Table 1 in all five cell lines are listed below (Table 4 through 11).

[3] = test system: TTR; assay: TTR editing in HUH7 cells transfected with Spy Cas9 mRNA and dgRNAs (Table 5); format: cell-based, human; conditions: HUH7 cells co-transfected with Spy Cas9 mRNA (SEQ ID NO:2) and dgRNAs
Method: HUH7 cell line. The human hepatocellular carcinoma cell line HUH7 (Japanese Collection of Research Bioresources Cell Bank, Cat. JCRB0403) was cultured in DMEM media supplemented with 10% fetal bovine serum. Cells were plated on at a density of 15,000 cells/well in a 96-well plate 20 hours prior to transfection. Cells were transfected with Lipofectamine MessengerMAX (ThermoFisher, Cat. LMRNA003) per the manufacturer's protocol. Cells were sequentially transfected with a lipoplex containing Spy Cas9 mRNA (100 ng), MessengerMAX (0.3 μL/well) and OptiMem followed by a separate lipoplex containing individual crRNA (25 nM), tracer RNA (25 nM), MessengerMAX (0.3 μL/well) and OptiMem.
as §4, §5, §6, §7, §9, §10

[4] = test system: TTR; assay: TTR editing in HepG2 cells transfected with Spy Cas9 mRNA and dgRNAs (Table 6); format: cell-based, human; conditions: HepG2 cells co-transfected with Spy Cas9 mRNA (SEQ ID NO:2) and dgRNAs
Method: HepG2 cell line. The human hepatocellular carcinoma cell line HepG2 (American Type Culture Collection, Cat. HB-8065) was cultured in DMEM media supplemented with 10% fetal bovine serum. Cells were counted and plated on Bio-coat collagen I coated 96-well plates (ThermoFisher, Cat. 877272) at a density of 10,000 cells/well in a 96-well plate 24 hours prior to transfection. Cells were transfected with Lipofectamine 2000 (ThermoFisher, Cat. 11668019) per the manufacturer's protocol. Cells were sequentially transfected with lipoplex containing Spy Cas9 mRNA (100 ng), Lipofectamine 2000 (0.2 μL/well) and OptiMem followed by a separate lipoplex containing individual crRNA (25 nM), tracer RNA (25 nM), Lipofectamine 2000 (0.2 μL/well) and OptiMem.
as §4, §5, §6, §7, §9, §10

[5] = test system: TTR; assay: TTR editing in primary human hepatocytes electroporated with Spy Cas9 protein loaded with dgRNAs (Table 7); format: cell-based; conditions: dgRNA electroporated with Spy Cas9 protein (RNP)
Method: as §1, §2, §3, §4, §5, §6, §7, §8

[6] = test system: TTR; assay: TTR editing in primary human hepatocytes transfected with Spy Cas9 protein (RNP) loaded with dgRNAs (Table 8); format: cell-based; conditions: dgRNA transfected with Spy Cas9 protein (RNP)
Method: as §1, §2
For RNP lipoplex transfections, cells were transfected with Lipofectamine RNAiMAX (ThermoFisher, Cat. 13778150) per the manufacturer's protocol. Cells were transfected with an RNP containing Spy Cas9 (10 nM), individual guide (10 nM), tracer RNA (10 nM), Lipofectamine RNAiMAX (1.0 μL/well) and OptiMem. RNP formation was performed as described above.
as §4, §5, §6, §7, §9
Guides in dgRNA format targeting human TTR and the cynomologus matched sequences were delivered to HEK293 Cas9, HUH7 and HepG2 cell lines, as well as primary human hepatocytes and primary cynomolgus monkey hepatocytes as described in Example 1. […]

[7] = test system: TTR; assay: TTR editing in primary human hepatocytes transfected with Spy Cas9 mRNA and dgRNAs (Table 9); format: cell-based; conditions: dgRNA co-transfected with Spy Cas9 mRNA (SEQ ID NO:2)
Method: as §1
Lipofectamine RNAiMax (ThermoFisher, Cat. 13778150) based transfections were conducted as per the manufacturer's protocol. Cells were sequentially transfected with a lipoplex containing Spy Cas9 mRNA (100 ng), Lipofectamine RNAiMax (0.4 μL/well) and OptiMem followed by a separate lipoplex containing crRNA (25 nM) and tracer RNA (25 nM) or sgRNA (25 nM), Lipofectamine RNAiMax (0.4 μL/well) and OptiMem.
as §4, §5, §6, §7, §9, §10

Row | Sequence | Avg % Deletion [1] [%] | Avg % Edit [1] [%] | Avg % Deletion [2] [%] | Avg % Edit [2] [%] | Avg % Insert [2] [%] | Avg % Deletion [3] [%] | Avg % Edit [3] [%] | Avg % Insert [3] [%] | Avg % Deletion [4] [%] | Avg % Edit [4] [%] | Avg % Insert [4] [%] | Avg % Deletion [5] [%] | Avg % Edit [5] [%] | Avg % Insert [5] [%] | Avg % Deletion [6] [%] | Avg % Edit [6] [%] | Avg % Insert [6] [%] | Avg % Deletion [7] [%] | Avg % Edit [7] [%] | Avg % Insert [7] [%] | other results
1 | AAAAGGCUGCUGAUGAGACC (tested as dual guide RNA, chemistry not given here) [CR005372] | 17.16 | 17.98 |  |  |  |  |  |  |  |  |  |  |  |  |  |  |  |  |  |  | Avg % Insert [1]: 0.83%
2 | AAAGGCUGCUGAUGAGACCU (tested as dual guide RNA, chemistry not given here) [CR005364] | 27.11 | 27.70 |  |  |  |  |  |  |  |  |  |  |  |  |  |  |  |  |  |  | Avg % Insert [1]: 0.58%
3 | AAAGUUCUAGAUGCCGUCCG (tested as dual guide RNA, chemistry not given here) [CR005369] | 33.92 | 42.01 |  |  |  |  |  |  |  |  |  |  |  |  |  |  |  |  |  |  | Avg % Insert [1]: 8.09%
4 | GGCGGCAAUGGUGUAGCGGC (tested as dual guide RNA, chemistry not given here) [CR003378] |  |  | 16.48 | 20.97 | 4.49 | 32.27 | 40.73 | 9.73 | 1.34 | 8.16 | 6.82 | 0.73 | 4.60 | 3.87 | 0.42 | 8.66 | 8.24 | 1.37 | 9.80 | 8.50 | 
5 | GGGCGGCAAUGGUGUAGCGG (tested as dual guide RNA, chemistry not given here) [CR003379] |  |  | 20.98 | 26.32 | 5.34 | 16.48 | 19.18 | 3.38 | 2.04 | 19.74 | 17.70 | 0.27 | 6.57 | 6.30 | 0.34 | 16.86 | 16.51 | 1.27 | 13.20 | 12.00 | 
6 | GGGGCUCAGCAGGGCGGCAA (tested as dual guide RNA, chemistry not given here) [CR003381] |  |  | 18.23 | 22.04 | 3.82 | 99.70 | 99.70 | 1.92 | 0.63 | 6.81 | 6.18 | 0.50 | 6.20 | 5.83 | 0.27 | 7.15 | 6.88 | 0.73 | 4.07 | 3.33 | 
7 | GUAUUCACAGCCAACGACUC (tested as dual guide RNA, chemistry not given here) [CR003373] |  |  | 12.25 | 13.55 | 1.31 | 25.12 | 27.29 | 3.31 | 1.77 | 17.69 | 15.92 | 0.07 | 0.87 | 0.83 | 0.19 | 3.64 | 3.44 | 0.37 | 1.40 | 1.00 | 
8 | UGCACGGCCACAUUGAUGGC (tested as dual guide RNA, chemistry not given here) [CR003349] |  |  | 5.16 | 13.19 | 8.03 | 4.82 | 14.14 | 9.73 | 3.91 | 8.36 | 4.46 | 1.87 | 4.10 | 2.33 | 1.83 | 10.83 | 9.00 | 1.70 | 2.57 | 0.90 | 
